From ChEMBL document CHEMBL3588748, “Original 2-(3-Alkoxy-1H-pyrazol-1-yl)azines Inhibitors of Human Dihydroorotate Dehydrogenase (DHODH)” (J Med Chem, 2015)
In brackets after ≈: the same amount, converted by molar mass. Activity calls are given as the source filed them.

Experiments:
Jurkat = test: Inhibition of cell proliferation of human Jurkat cells incubated for 72 hrs by Celltiter-Glo assay; format: functional, cell-based
Measles morbillivirus [1] = test: microbe, parasite or virus in culture; conditions: rMV2/Luc, 24 h
Description: (§1) Antiviral activity against measles virus rMV2/Luc infected in HEK-293T cells assessed as inhibition of virus growth incubated for 24 hrs by firefly luciferase reporter gene assay

Plasmodium falciparum [2] = test: Antiplasmodial activity against Plasmodium falciparum 3D7 assessed as inhibition of parasite growth at 8.66 ug/ml by SYBR Green I dye based assay; format: functional, organism-based
[3] = Half life in human microsomes; format: ADME, Microsome
Measles morbillivirus [4] = system: Measles morbillivirus
Description: as §1

Plasmodium falciparum [5] = test: Antiplasmodial activity against Plasmodium falciparum 3D7 assessed as inhibition of parasite growth by SYBR Green I dye based assay; format: functional, organism-based
[6] = molecular target: T1, Dihydroorotate dehydrogenase (quinone), mitochondrial (Plasmodium falciparum (isolate 3D7)) (UniProt Q08210); test: Inhibition of Plasmodium falciparum DHODH expressed in Escherichia coli by […]-based spectrophotometric method
T1 sequence (whole entry): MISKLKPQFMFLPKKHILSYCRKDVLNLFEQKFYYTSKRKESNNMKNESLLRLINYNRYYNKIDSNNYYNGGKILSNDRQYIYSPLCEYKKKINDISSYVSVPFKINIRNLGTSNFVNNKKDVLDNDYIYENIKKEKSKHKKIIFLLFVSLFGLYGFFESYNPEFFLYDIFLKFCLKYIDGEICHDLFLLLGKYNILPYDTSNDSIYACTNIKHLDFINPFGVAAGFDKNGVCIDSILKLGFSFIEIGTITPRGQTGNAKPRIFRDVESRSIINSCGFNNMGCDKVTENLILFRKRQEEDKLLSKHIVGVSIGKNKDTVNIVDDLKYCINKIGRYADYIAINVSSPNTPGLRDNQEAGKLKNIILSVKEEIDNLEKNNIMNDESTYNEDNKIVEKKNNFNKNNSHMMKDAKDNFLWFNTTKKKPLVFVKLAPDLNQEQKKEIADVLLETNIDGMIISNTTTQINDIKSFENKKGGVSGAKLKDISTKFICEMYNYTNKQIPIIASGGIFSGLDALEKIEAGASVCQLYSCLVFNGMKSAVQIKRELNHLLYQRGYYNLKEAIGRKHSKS

C/C(O)=C(\C#N)C(=O)Nc1ccc(C(F)(F)F)cc1 [TERIFLUNOMIDE]
IC50 (Jurkat): 60000 nM | MIC50 (Measles morbillivirus [1]): 5 µM (≈ 1.35 µg/mL) | growth inhibition (GI) (Plasmodium falciparum [2]): inactive

Cc1c(Oc2c(F)cccc2F)c(OC(C)C)nn1-c1ccc(C2CC2)cn1
growth inhibition (GI) (Plasmodium falciparum [2]): inactive | t1/2 [3]: 6 min | pMIC50 (Measles morbillivirus [4]): 9

COc1ccc(-n2nc(OC(C)C)c(Oc3c(F)cccc3F)c2C)nn1
growth inhibition (GI) (Plasmodium falciparum [2]): inactive | t1/2 [3]: 22 min | pMIC50 (Measles morbillivirus [4]): 7.1

Cc1c(Oc2ccccc2F)c(OC(C)C)nn1-c1ccc(C2CC2)cn1
growth inhibition (GI) (Plasmodium falciparum [2]): inactive | t1/2 [3]: 4 min | pMIC50 (Measles morbillivirus [4]): 7.4

Cc1c(Oc2c(F)cccc2F)c(OC(C)C)nn1-c1ncc(Br)cc1F
growth inhibition (GI) (Plasmodium falciparum [2]): inactive | t1/2 [3]: 60 min | pMIC50 (Measles morbillivirus [4]): 6.9

Cc1ccc(-n2nc(OC(C)C)c(Oc3c(F)cccc3F)c2C)nn1
IC50 (Plasmodium falciparum [5]): 470 nM | inhibition [6]: inactive

Cc1c(Oc2c(F)cccc2F)c(OC(C)C)nn1-c1ncc(C2CC2)cc1O
growth inhibition (GI) (Plasmodium falciparum [2]): inactive | t1/2 [3]: 38 min | pMIC50 (Measles morbillivirus [4]): 8.1

Cc1c(Oc2c(F)cccc2F)c(OC(C)C)nn1-c1ccc(C2CC2)nn1
IC50 (Plasmodium falciparum [5]): 330 nM | inhibition [6]: inactive

CCOc1nn(-c2ccc(C(F)(F)F)cn2)c(C)c1Cc1ccccc1
growth inhibition (GI) (Plasmodium falciparum [2]): inactive | pMIC50 (Measles morbillivirus [4]): 5.5

CCOc1nn(-c2ncc(Br)cc2C)c(C)c1Cc1ccccc1
growth inhibition (GI) (Plasmodium falciparum [2]): inactive | pMIC50 (Measles morbillivirus [4]): <5

COc1cc(C2CC2)cnc1-n1nc(OC(C)C)c(Oc2c(F)cccc2F)c1C
growth inhibition (GI) (Plasmodium falciparum [2]): inactive | pMIC50 (Measles morbillivirus [4]): 7.5
